For one assay, the target named is T1, PARP 3 (Homo sapiens, UniProt Q9Y6F1).
T1 sequence (Q9Y6F1 1-533): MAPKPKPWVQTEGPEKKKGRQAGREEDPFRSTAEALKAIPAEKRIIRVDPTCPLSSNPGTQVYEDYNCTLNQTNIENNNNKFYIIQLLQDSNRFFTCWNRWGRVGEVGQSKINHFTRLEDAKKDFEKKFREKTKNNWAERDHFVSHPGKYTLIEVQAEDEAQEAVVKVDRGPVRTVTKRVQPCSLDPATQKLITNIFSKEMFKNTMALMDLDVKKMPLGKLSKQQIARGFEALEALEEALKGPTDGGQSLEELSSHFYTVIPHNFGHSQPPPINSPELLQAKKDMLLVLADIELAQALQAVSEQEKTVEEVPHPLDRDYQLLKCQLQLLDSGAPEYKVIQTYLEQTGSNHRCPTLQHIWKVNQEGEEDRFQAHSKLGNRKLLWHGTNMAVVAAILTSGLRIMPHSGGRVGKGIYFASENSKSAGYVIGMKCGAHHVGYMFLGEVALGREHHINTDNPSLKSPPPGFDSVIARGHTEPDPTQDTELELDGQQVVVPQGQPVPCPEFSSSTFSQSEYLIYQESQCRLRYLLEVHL
Description: In vitro IC50, PARP3. The assay is classed as biochemical. The conditions noted are these: SEM from a minimum of three dose-response experiments.

Another assay addresses T2, PARP5 bcat (Homo sapiens, UniProt Q9H2K2).
T2 construct: bcat
Description: In vitro IC50, PARP5bcat. It counts as biochemical. The note with it: SEM from a minimum of three dose-response experiments.

A further assay concerns the target T3, PARP14 cat-wwe (Homo sapiens, UniProt Q460N5).
T3 construct: PARP14 cat-wwe; no borders given for the assay protein
T3 sequence (Q460N5 1523-1801 limits assumed): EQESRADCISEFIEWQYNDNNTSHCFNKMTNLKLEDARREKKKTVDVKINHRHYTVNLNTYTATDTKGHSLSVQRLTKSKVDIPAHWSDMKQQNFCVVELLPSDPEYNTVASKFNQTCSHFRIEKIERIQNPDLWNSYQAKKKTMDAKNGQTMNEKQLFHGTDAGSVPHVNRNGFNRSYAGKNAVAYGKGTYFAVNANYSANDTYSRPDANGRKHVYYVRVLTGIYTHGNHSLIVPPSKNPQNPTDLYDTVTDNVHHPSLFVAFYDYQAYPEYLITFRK
Put plainly: In vitro IC50, PARP14 cat-wwe. It counts as biochemical. The note with it: SEM from a minimum of three dose-response experiments.

In a further assay the target is T4, PARP15 cat (Homo sapiens, UniProt Q460N3).
T4 construct: cat-wwe; cat
T4 sequence (Q460N3 482-678 limits assumed): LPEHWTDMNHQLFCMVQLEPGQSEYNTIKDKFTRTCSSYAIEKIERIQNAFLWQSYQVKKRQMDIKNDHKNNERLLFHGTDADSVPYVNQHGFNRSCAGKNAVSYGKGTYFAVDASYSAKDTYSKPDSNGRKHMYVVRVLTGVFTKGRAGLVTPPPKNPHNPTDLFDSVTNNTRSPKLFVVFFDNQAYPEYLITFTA
Description: In vitro IC50, PARP15 cat. The assay is classed as biochemical. The conditions noted are these: SEM from a minimum of three dose-response experiments.

A further assay has as its target PARP 1 (Homo sapiens, UniProt P09874). Put plainly: In vitro IC50, PARP1. It counts as biochemical. The conditions noted are these: SEM from a minimum of three dose-response experiments.
Another assay has as its target PARP 2 (Homo sapiens, UniProt Q9UGN5). Put plainly: In vitro IC50, PARP2. The conditions noted are these: SEM from a minimum of three dose-response experiments. The assay is classed as biochemical.
Another assay deals with T5, PARP11 (Homo sapiens, UniProt Q9NR21).
T5 sequence (Q9NR21 1-338): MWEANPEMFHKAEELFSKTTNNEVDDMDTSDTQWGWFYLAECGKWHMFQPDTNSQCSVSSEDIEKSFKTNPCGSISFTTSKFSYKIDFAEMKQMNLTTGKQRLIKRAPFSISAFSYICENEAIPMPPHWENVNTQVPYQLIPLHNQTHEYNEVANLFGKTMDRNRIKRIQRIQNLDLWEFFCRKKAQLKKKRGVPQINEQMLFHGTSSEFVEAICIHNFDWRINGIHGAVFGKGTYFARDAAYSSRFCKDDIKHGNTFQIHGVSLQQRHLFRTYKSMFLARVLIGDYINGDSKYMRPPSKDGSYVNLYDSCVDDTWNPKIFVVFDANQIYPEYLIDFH
Put plainly: In vitro IC50, PARP11 (plate assay, MARylation of SRPK2 and NXF1). The note with it: SEM from a minimum of three dose-response experiments. It counts as biochemical. An excerpt:
Curves generated using Prism 7 (Graph Pad); error bars indicate ±SEM from at least two replicates.

Another assay concerns the target T6, PARP10cat (Homo sapiens, UniProt Q53GL7).
T6 construct: bcat; cat; PARP11
T6 sequence (Q53GL7 806-1025 limits assumed): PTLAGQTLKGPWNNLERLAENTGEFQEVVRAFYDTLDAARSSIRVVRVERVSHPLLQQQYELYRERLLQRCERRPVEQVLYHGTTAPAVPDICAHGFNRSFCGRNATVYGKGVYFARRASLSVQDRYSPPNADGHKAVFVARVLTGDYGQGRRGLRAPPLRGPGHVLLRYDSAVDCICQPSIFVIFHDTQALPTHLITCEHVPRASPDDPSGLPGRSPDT
Description: In vitro IC50, PARP10cat. The note with it: SEM from a minimum of three dose-response experiments. It counts as biochemical.

The target of a further assay is T7, PARP1/2 (Homo sapiens, UniProt P09874).
T7 construct: expressed in transfected cells; host or cells: HEK 293T
Put plainly: H2O2-stimulated PARP1/2 activity in HEK 293T cells (Western blot). The assay is classed as cell-based. The conditions noted are these: H2O2 500 μM for 15 min, Western blot with ADPr binding reagent.

Some results are limits rather than exact numbers.

Chain of PARP 2 (Q9UGN5 whole entry): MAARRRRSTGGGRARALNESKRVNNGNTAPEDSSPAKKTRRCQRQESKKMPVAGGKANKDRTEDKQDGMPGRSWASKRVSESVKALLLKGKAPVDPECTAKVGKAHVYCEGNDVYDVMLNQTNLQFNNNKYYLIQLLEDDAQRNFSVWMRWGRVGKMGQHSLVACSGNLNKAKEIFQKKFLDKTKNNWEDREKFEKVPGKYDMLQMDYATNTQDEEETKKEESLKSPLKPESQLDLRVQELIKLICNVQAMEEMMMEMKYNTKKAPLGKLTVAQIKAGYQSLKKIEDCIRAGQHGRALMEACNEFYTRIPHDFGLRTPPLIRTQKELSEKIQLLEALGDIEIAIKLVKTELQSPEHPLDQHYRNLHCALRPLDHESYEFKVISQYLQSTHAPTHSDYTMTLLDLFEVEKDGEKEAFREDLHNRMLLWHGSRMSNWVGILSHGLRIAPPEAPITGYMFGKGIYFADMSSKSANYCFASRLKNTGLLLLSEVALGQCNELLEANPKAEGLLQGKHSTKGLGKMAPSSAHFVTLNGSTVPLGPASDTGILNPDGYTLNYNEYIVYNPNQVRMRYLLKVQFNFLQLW
Chain of PARP 1 (P09874 whole entry): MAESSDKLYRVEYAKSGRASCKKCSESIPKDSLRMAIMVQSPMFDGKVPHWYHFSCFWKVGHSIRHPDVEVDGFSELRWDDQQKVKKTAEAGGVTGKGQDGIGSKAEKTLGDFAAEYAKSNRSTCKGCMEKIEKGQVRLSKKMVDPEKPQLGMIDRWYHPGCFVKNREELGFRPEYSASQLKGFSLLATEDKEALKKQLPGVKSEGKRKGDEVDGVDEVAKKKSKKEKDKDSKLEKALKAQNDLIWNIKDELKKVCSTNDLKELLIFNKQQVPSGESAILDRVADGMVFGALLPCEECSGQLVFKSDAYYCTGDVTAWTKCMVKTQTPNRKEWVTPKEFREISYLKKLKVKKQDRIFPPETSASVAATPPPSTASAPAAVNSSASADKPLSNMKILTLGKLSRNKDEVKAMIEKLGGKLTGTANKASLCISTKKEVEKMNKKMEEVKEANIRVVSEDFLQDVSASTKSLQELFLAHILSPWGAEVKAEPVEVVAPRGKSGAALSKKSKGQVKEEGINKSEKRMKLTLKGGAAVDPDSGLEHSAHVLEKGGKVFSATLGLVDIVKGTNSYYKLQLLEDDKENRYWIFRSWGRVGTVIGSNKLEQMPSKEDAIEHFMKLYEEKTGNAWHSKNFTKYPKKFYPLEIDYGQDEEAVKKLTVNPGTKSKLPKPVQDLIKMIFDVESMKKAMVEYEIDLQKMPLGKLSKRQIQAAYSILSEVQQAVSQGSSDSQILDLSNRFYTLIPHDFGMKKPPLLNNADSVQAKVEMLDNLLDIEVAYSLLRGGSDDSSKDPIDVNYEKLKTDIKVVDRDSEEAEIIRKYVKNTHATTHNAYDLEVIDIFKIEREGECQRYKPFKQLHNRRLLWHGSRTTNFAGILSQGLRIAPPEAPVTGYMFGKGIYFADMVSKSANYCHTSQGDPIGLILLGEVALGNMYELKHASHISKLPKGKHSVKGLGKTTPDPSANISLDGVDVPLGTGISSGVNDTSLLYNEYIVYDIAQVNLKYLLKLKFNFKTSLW
T2 sequence (Q9H2K2 959-1164): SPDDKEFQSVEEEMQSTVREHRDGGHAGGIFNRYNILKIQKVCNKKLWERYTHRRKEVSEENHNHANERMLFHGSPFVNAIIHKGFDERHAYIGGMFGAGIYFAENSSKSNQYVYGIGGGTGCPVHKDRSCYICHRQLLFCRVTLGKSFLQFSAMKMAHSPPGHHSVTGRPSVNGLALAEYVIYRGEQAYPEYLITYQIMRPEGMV
T7 sequence (P09874 2-1014): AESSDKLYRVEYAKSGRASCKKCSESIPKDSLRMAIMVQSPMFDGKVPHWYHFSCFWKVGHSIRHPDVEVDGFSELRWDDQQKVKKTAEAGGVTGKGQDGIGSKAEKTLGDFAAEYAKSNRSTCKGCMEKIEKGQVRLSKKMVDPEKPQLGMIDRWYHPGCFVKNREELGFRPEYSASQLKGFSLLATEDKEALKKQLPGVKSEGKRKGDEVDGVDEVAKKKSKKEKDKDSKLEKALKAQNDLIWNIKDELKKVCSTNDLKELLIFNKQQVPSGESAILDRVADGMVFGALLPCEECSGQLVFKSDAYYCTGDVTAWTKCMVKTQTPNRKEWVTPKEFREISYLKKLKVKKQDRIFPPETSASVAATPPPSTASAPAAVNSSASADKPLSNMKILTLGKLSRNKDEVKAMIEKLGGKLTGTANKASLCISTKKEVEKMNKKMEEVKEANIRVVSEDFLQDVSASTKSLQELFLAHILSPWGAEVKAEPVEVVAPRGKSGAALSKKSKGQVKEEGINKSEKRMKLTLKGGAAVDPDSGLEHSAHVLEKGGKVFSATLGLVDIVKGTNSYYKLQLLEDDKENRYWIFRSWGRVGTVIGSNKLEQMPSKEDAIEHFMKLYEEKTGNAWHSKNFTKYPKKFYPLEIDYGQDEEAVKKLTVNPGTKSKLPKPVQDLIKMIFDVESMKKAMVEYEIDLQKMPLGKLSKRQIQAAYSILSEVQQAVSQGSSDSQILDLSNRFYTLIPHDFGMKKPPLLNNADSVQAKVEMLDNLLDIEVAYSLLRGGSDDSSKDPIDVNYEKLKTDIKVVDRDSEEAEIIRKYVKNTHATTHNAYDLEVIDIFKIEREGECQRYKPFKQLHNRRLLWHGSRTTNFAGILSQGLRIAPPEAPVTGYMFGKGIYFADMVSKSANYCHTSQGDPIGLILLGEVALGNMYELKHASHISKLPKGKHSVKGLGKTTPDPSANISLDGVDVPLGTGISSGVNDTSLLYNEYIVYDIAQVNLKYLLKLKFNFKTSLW
Description for PARP1/2: Lysates were prepared and PAR/MARylation was analyzed by Western blot with an ADP-ribose (ADPr) binding reagent. Blot was also probed with antibodies for GFP and actin. The band of interest represents auto-PARylated GFP-PARP1. […] Lysates were prepared and PAR/MARylation was analyzed by Western blot with an ADP-ribose (ADPr) binding reagent. Blot was also probed with antibodies for GFP and actin.
Lysates were prepared and PAR/MARylation was analyzed by Western blot with an ADP-ribose (ADPr) binding reagent. Blot was also probed with antibodies for GFP and actin. The band of interest represents auto-PARylated GFP-PARP1.

With `Cc1ccc2c(=O)[nH]c(CSc3ncccn3)nc2c1C` [ITK1, 7,8-dimethyl-2-((pyrimidin-2-ylthio)methyl)quinazolin-4(3H)-one], the half-maximal inhibitory concentration (IC50) was over 30 µM against PARP 3; over 10 µM against PARP5 bcat; 8.55 ± 0.8 µM at PARP14 cat-wwe; over 30 µM against PARP15 cat; over 30 µM against PARP 1; 17.4 ± 3.3 µM against PARP 2. In addition, the results for the 50% inhibitory concentration (IC50) against PARP11 and at PARP10cat were 0.55 ± 0.11 µM and 19.7 ± 0.95 µM, respectively.

As to `Cc1ccc2c(=O)[nH]c(CSc3ncnc4nc[nH]c34)nc2c1C` [ITK2, 2-(((7H-purin-6-yl)thio)methyl)-7,8-dimethylquinazolin-4(3H)-one], the half-inhibitory concentration (IC50) at PARP 3 is over 30 µM; on PARP5 bcat it was over 10 µM; against PARP14 cat-wwe, 7.87 ± 0.2 µM; against PARP15 cat, over 30 µM; at PARP 1, over 30 µM; on PARP 2 it was over 30 µM. Also, the half-maximal inhibitory concentration (IC50) was found to be 4.52 ± 1.4 µM against PARP11 and 32.8 ± 3.6 µM against PARP10cat.

On to `Cc1ccc2c(=O)[nH]c(CSc3nnc(N)[nH]3)nc2c1C` [ITK3, 2-(((5-amino-4H-1,2,4-triazol-3-yl)thio)methyl)-7,8-dimethylquinazolin-4(3H)-one], for which the IC50 against PARP 3 is over 30 µM; on PARP5 bcat, over 10 µM; on PARP14 cat-wwe it was 6.73 ± 1.8 µM; against PARP15 cat it was over 30 µM; at PARP 1, over 30 µM; against PARP 2 it was over 30 µM. In addition, the IC50 against PARP11 turned out to be 13.6 ± 1.4 µM; at PARP10cat, 27.9 ± 3.9 µM.

Take `Cc1ccc2c(=O)[nH]c(CSc3ccc(C(=O)O)cc3)nc2c1C` [ITK4, 4-(((7,8-dimethyl-4-oxo-3,4-dihydroquinazolin-2-yl)methyl)thio)benzoic acid]: the 50% inhibitory concentration (IC50) was over 30 µM against PARP 3; over 10 µM against PARP5 bcat; 8.71 ± 0.8 µM against PARP14 cat-wwe; 6.85 ± 0.99 µM at PARP15 cat; over 30 µM against PARP 1; 8.46 ± 1.4 µM on PARP 2. In addition, the half-maximal inhibitory concentration (IC50) at PARP11 amounted to 5.5 ± 0.8 µM; against PARP10cat, 9.29 ± 0.2 µM.

As to `C#Cc1ccc2c(=O)[nH]c(CSc3ccc(C(=O)O)cc3)nc2c1C` [ITK5, 4-(((7-ethynyl-8-methyl-4-oxo-3,4-dihydroquinazolin-2-yl)methyl)thio)benzoic acid], the IC50 was over 30 µM on PARP 3; over 10 µM on PARP5 bcat; 10.8 ± 0.75 µM at PARP14 cat-wwe; 4.03 ± 0.77 µM at PARP15 cat; over 30 µM at PARP 1; over 30 µM at PARP 2. The IC50 against PARP11 amounted to 1.62 ± 0.33 µM; on PARP10cat, 5.4 ± 0.17 µM.

In the case of `CNCc1ccc(-c2[nH]c3cc(F)cc4c3c2CCNC4=O)cc1` [Rucaparib, reference compound], at PARP11, the IC50 amounted to 3.4 ± 0.5 µM.

In the case of `C[C@]1(c2nc3c(C(N)=O)cccc3[nH]2)CCCN1` [veliparib, reference compound], the “Inhibition of H2O2-mediated PARP1 PARylation (PARP½ activity) in cells” value at PARP1/2 is given as “completely inhibits”.

Source of the values: US12404250B2, “PARP inhibitors for treating cancer and asthma” (Oregon Health & Science University, priority 2018, dated 2025).
